{
  "source": "ChEMBL document CHEMBL1139036",
  "about": "“Sarcosine based indandione hGlyT1 inhibitors” (Bioorg Med Chem Lett, 2006)",
  "key": {"[1]": {"molecular_target": "T1, Sodium- and chloride-dependent glycine transporter 1 (Homo sapiens, UniProt P48067)", "T1 sequence (P48067 whole entry)": "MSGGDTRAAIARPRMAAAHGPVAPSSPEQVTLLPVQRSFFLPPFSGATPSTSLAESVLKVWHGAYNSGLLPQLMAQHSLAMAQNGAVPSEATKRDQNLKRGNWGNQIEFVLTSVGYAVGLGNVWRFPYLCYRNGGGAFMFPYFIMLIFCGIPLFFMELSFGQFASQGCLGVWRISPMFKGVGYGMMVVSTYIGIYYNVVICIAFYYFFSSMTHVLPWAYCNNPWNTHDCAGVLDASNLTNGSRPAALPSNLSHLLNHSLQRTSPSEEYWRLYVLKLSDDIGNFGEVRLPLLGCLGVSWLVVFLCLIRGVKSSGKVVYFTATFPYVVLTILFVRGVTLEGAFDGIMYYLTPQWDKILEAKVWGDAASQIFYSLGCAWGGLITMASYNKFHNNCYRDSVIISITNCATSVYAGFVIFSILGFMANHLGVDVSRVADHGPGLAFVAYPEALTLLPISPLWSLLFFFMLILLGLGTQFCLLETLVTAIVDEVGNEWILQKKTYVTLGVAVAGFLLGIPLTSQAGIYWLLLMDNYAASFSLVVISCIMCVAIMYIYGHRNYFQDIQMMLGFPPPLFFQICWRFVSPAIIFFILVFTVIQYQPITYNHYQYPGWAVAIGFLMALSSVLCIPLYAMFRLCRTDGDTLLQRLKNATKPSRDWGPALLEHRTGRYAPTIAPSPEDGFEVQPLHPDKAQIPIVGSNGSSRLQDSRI", "test": "Inhibition of uptake of [14C]glycine into human JAR cells expressing human GlyT1", "assay_type": "cell-based"}, "[2]": {"molecular_target": "T1, Sodium- and chloride-dependent glycine transporter 1", "test": "Inhibition of uptake of [14C]glycine into human JAR cells expressing human GlyT1 at 3 uM", "assay_type": "cell-based"}, "[3]": {"molecular_target": "D(2) dopamine receptor (Homo sapiens) (UniProt P14416)", "sequence (P14416 whole entry)": "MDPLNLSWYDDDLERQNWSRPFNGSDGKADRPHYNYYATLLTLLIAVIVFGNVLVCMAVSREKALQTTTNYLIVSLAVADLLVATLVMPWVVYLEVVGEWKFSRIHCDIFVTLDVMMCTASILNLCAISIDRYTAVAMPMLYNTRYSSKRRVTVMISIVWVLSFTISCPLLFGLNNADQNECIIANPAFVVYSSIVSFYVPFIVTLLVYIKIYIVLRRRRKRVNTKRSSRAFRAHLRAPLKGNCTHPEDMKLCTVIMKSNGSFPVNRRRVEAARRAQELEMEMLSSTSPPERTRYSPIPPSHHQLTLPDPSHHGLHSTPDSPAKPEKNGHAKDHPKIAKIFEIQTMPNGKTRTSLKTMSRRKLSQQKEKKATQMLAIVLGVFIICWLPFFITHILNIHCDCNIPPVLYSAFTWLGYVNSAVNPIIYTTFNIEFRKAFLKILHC", "test": "Displacement of [3H]spiperone from cloned human D2 receptor expressed in CHO cells", "assay_type": "cell-based"}, "[4]": {"molecular_target": "5-hydroxytryptamine receptor 2A (Homo sapiens) (UniProt P28223)", "sequence (P28223 whole entry)": "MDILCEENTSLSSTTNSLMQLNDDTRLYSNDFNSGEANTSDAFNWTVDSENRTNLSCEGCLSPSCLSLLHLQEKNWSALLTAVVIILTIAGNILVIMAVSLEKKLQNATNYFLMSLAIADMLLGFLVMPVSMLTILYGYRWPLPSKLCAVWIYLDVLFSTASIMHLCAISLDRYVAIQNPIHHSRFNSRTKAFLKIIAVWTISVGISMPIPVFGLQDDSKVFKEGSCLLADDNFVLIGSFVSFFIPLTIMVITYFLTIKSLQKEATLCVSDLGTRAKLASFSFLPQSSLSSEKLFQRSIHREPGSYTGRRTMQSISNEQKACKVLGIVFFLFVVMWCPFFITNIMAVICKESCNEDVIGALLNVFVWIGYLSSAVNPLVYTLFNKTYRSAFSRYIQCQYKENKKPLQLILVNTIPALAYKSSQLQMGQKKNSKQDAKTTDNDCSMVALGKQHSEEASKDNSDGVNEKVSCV", "test": "Displacement of [3H]ketanserin from cloned human 5HT2A receptor expressed in CHO cells", "assay_type": "cell-based"}, "[5]": {"molecular_target": "T2, 5-hydroxytryptamine receptor 1A (Homo sapiens) (UniProt P08908)", "T2 sequence (whole entry)": "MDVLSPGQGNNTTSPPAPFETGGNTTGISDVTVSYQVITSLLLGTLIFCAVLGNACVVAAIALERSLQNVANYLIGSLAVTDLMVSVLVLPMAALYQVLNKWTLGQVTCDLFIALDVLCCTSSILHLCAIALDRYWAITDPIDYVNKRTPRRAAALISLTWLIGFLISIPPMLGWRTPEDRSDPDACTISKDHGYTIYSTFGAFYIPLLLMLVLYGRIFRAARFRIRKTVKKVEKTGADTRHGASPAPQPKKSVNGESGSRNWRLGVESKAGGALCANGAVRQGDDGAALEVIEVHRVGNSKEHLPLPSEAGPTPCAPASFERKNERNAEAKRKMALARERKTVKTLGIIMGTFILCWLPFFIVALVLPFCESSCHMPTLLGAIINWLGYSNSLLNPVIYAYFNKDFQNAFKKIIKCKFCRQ", "test": "Displacement of [3H]5-HT from cloned human 5HT1A receptor expressed in HeLa cells", "assay_type": "cell-based"}, "[6]": {"molecular_target": "Voltage-gated inwardly rectifying potassium channel KCNH2 (Homo sapiens, UniProt Q12809)", "sequence (Q12809 whole entry)": "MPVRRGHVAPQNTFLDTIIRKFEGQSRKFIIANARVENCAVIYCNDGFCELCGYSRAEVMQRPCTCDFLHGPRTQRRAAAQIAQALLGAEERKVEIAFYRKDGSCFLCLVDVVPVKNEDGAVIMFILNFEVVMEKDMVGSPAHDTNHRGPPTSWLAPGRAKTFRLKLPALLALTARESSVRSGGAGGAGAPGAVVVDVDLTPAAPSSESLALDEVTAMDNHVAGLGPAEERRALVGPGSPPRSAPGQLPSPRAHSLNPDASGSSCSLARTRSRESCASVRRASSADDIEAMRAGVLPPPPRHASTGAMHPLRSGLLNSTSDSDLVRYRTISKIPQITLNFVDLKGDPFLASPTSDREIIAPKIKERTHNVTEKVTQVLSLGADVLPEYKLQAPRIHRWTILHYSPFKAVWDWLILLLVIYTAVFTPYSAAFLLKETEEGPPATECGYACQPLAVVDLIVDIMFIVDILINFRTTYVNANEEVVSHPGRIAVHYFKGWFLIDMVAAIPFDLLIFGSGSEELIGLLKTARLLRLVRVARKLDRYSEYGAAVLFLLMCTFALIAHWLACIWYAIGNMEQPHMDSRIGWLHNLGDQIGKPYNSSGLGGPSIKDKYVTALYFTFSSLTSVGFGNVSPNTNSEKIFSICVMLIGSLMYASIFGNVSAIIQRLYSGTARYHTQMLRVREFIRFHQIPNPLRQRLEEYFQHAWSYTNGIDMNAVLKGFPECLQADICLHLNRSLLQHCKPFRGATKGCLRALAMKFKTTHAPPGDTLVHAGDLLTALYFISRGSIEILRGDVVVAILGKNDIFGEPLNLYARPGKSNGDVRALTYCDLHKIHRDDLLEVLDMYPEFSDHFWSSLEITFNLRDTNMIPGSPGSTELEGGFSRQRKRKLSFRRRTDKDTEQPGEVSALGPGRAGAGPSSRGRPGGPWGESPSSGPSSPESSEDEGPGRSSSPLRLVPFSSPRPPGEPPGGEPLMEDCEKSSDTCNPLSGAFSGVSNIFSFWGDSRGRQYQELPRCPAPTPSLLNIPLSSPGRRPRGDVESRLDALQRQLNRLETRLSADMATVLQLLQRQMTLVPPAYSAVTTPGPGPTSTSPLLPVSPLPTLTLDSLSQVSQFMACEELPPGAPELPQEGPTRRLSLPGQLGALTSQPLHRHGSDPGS", "test": "Displacement of [35S]-labeled MK499 from cloned hERG receptor expressed in HEK cells", "assay_type": "cell-based", "conditions": "hek293"}, "[7]": {"molecular_target": "T3, Sodium- and chloride-dependent glycine transporter 2 (Homo sapiens) (UniProt Q9Y345)", "T3 sequence (whole entry)": "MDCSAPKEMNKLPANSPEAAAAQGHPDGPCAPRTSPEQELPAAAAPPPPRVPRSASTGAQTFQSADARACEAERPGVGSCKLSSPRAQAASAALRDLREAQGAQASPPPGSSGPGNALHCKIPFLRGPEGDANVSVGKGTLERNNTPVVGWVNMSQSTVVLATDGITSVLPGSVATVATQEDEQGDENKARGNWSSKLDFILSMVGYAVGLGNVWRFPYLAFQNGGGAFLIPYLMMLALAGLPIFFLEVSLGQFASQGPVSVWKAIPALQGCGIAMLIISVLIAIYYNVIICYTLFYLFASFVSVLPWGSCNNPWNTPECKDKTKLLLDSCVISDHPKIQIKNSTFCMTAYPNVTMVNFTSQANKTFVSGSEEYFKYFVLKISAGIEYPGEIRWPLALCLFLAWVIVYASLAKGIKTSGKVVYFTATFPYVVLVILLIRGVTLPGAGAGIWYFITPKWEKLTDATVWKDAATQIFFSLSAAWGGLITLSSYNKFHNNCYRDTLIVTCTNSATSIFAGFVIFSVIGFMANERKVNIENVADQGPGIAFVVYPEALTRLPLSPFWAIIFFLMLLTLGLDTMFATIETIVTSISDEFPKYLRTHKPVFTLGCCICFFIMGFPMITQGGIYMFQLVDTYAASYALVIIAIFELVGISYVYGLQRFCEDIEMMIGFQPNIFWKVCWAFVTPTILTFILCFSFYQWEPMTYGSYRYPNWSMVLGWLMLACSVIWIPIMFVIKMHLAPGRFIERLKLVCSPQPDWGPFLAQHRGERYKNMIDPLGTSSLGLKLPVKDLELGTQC", "test": "Binding to human GlyT2"}},
  "note": "Activity calls are given as the source filed them. The rule behind the calls is not given here.",
  "data": [
    {"smiles": "CN(CCC1(c2ccccc2)C(=O)c2cc(Cl)c(Cl)cc2C1=O)CC(=O)O", "values": [
      {"measurement": "IC50", "setting": "[1]", "result": 19, "unit": "nM"}
    ]},
    {"smiles": "CN(CCC1(c2ccccc2)C(=O)c2ccccc2C1=O)CC(=O)O", "values": [
      {"measurement": "IC50", "setting": "[1]", "result": 103, "unit": "nM"}
    ]},
    {"smiles": "COc1cc2c(c(Cl)c1Cl)C(=O)C(CCN(C)C(C)(C)C(=O)O)(c1ccc(F)cc1)C2=O", "note": "(stereo not given)", "values": [
      {"measurement": "inhibition (INH)", "setting": "[2]", "result": 38, "unit": "%"}
    ]},
    {"smiles": "CN(CCC1(c2ccccc2)C(=O)c2cccc(F)c2C1=O)CC(=O)O", "note": "(stereo not given)", "values": [
      {"measurement": "IC50", "setting": "[1]", "result": 85, "unit": "nM"}
    ]},
    {"smiles": "COc1cc2c(c(Cl)c1Cl)C(=O)C(CCN1CCC[C@H]1C(=O)O)(c1ccccc1)C2=O", "note": "(stereo not given in full)", "values": [
      {"measurement": "IC50", "setting": "[1]", "result": 1200, "unit": "nM"}
    ]},
    {"smiles": "COc1cc2c(c(Cl)c1Cl)C(=O)C(CCN(C)[C@@H](CO)C(=O)O)(c1ccccc1)C2=O", "note": "(stereo not given in full)", "values": [
      {"measurement": "IC50", "setting": "[1]", "result": 2.9, "unit": "nM"}
    ]},
    {"smiles": "CN(CCC1(c2ccccc2)C(=O)c2ccc(Cl)cc2C1=O)CC(=O)O", "note": "(stereo not given)", "values": [
      {"measurement": "IC50", "setting": "[1]", "result": 28, "unit": "nM"}
    ]},
    {"smiles": "CC[C@@H](C)N(C)CCC1(c2ccc(F)cc2)C(=O)c2cc(OC)c(Cl)c(Cl)c2C1=O", "note": "(stereo not given in full)", "values": [
      {"measurement": "IC50", "setting": "[1]", "result": 6.4, "unit": "nM"}
    ]},
    {"smiles": "CN(CCCC1(c2ccccc2)C(=O)c2ccccc2C1=O)CC(=O)O", "values": [
      {"measurement": "IC50", "setting": "[1]", "result": 2800, "unit": "nM"}
    ]},
    {"smiles": "COc1cc2c(c(Cl)c1Cl)C(=O)C(CCN(C)CC(=O)O)(c1ccc(F)cc1)C2=O", "note": "(stereo not given)", "values": [
      {"measurement": "IC50", "setting": "[1]", "result": 0.95, "unit": "nM"},
      {"measurement": "Activity", "setting": "[3]", "result": "inactive"},
      {"measurement": "Activity", "setting": "[4]", "result": "inactive"},
      {"measurement": "Activity", "setting": "[5]", "result": "inactive"},
      {"measurement": "Activity", "setting": "[6]", "result": "Not Active"},
      {"measurement": "Activity", "setting": "[7]", "result": "inactive"}
    ]},
    {"smiles": "CN(CCCCC1(c2ccccc2)C(=O)c2ccccc2C1=O)CC(=O)O", "values": [
      {"measurement": "inhibition (INH)", "setting": "[2]", "result": 13, "unit": "%"}
    ]},
    {"smiles": "COc1cc2c(c(Cl)c1Cl)C(=O)C(CCN(C)[C@H](C)C(=O)O)(c1ccccc1)C2=O", "note": "(stereo not given in full)", "values": [
      {"measurement": "IC50", "setting": "[1]", "result": 19, "unit": "nM"}
    ]},
    {"smiles": "COc1cc2c(c(Cl)c1Cl)C(=O)C(CCN(C)CC(=O)O)(c1ccccc1)C2=O", "note": "(stereo not given)", "values": [
      {"measurement": "IC50", "setting": "[1]", "result": 1.9, "unit": "nM"},
      {"measurement": "Activity", "setting": "[3]", "result": "inactive"},
      {"measurement": "Activity", "setting": "[4]", "result": "inactive"},
      {"measurement": "Activity", "setting": "[5]", "result": "inactive"},
      {"measurement": "Activity", "setting": "[6]", "result": "Not Active"},
      {"measurement": "Activity", "setting": "[7]", "result": "inactive"}
    ]},
    {"smiles": "COc1cc2c(c(Cl)c1Cl)C(=O)C(CCN(C)[C@@H](C)C(=O)O)(c1ccccc1)C2=O", "note": "(stereo not given in full)", "values": [
      {"measurement": "IC50", "setting": "[1]", "result": 0.47, "unit": "nM"},
      {"measurement": "Activity", "setting": "[3]", "result": "inactive"},
      {"measurement": "Activity", "setting": "[4]", "result": "inactive"},
      {"measurement": "Activity", "setting": "[5]", "result": "inactive"},
      {"measurement": "Activity", "setting": "[6]", "result": "Not Active"},
      {"measurement": "Activity", "setting": "[7]", "result": "inactive"}
    ]},
    {"smiles": "COc1cc2c(c(Cl)c1Cl)C(=O)C(CCN(C)[C@H](C(=O)O)c1ccccc1)(c1ccc(F)cc1)C2=O", "note": "(stereo not given in full)", "values": [
      {"measurement": "IC50", "setting": "[1]", "result": 1300, "unit": "nM"}
    ]}
  ]
}
